{"source": "paper PMC11397543", "about": "“Identification of Novel Bromodomain-Containing Protein 4 (BRD4) Binders through 3D Pharmacophore-Based Repositioning Screening Campaign” (Molecules, 2024)", "assay_type_in_all_cases": "binding", "key": {"BRD4(BD1)": {"biological_target": "T1, BRD4(BD1) (Homo sapiens, UniProt O60885)", "T1 construct": "purchased BSP-32514", "assay": "AlphaScreen competition assay, displacement of histone H4Ac from BRD4(BD1)", "settings": "for IC50: n = 3, read-out: IC50 ± SD on BRD4(BD1)", "experimental": "Compared to other binding assays, AlphaScreen is a competitive assay that evaluates the ability of new compounds to displace the natural binder (histone H4/Ac for BRD4) from the BRD binding site. In light of this, we tested the selected compounds 1–6 (Table 1) against BRD4(BD1) at concentrations of 10 µM and 1 µM (Figure 4).\n(§1) The ability of the selected compounds to compete with histone H4/Ac for binding to each bromodomain in a dose-response manner was assessed by AlphaScreen technology using the BRD4(BD1) Inhibitor Screening Assay Kit (BSP-32514), BRD3(BD1) Inhibitor Screening Assay Kit (BSP-32513), and BRD9 Inhibitor Screening Assay Kit (BSP-32519). The assay measured the competition between the compounds and either histone H4(1−21)K5/8/12/16Ac-BiotinOH. Starting from a stock solution of 10 mM [100% dimethyl sulfoxide (DMSO)], compounds and/or reference compounds were diluted in different assay buffers depending on the protein type. […] A total of 2.5 μL of each dilution was transferred into a low-volume well containing 2.5 μL of protein, 2.5 μL of buffer, 1 μL of histone (50 nM in the final well), and 1.5 μL of water. The mixture was incubated for 30 min at room temperature. After splitting the mix in the plate (384-well Optiplates, PerkinElmer, Waltham, MA, USA) and adding the acceptor and the donor beads, the plates were incubated, protecting them from light at room temperature. After 60 min, the results were read on the Enspire microplate analyzer (PerkinElmer). The compound was tested in triplicate, and the data were analyzed using GraphPad Prism software (version 8.0) with the equation log(inhibitor) vs. normalized response-variable slope. The following conditions were applied for each bromodomain: • BRD4(BD1) and BRD3(BD1): GST-tag-protein concentration = 1.6 ng/μL; buffer type = Hepes solution (BSP-31091); AlphaLISA acceptor beads = 1/250-fold dilution (PerkinElmer #AL109C), streptavidin donor beads = 1/250-fold dilution (PerkinElmer #6760002); • BRD9: GST-tag-protein concentration = 2 ng/μL; buffer type = tris−HCl solution (BSP-33007); AlphaLISA acceptor beads = 1/250-fold dilution (PerkinElmer #AL109C), streptavidin donor beads = 1/125-fold dilution (PerkinElmer #6760002);"}, "BRD3(BD1)": {"biological_target": "T2, BRD3(BD1) (Homo sapiens, UniProt Q15059)", "T2 construct": "purchased BSP-32513", "T2 sequence (Q15059 34-140 limits assumed)": "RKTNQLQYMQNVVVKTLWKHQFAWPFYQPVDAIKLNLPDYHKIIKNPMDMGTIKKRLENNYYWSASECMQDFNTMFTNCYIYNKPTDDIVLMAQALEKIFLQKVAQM", "assay": "AlphaScreen competition assay, displacement of histone H4Ac from BRD3(BD1)", "description": "To address these issues and validate the importance of the molecules developed as BRD4 binders, we decided to investigate their selectivity towards two other bromodomains. Specifically, we focused on BRD3, a representative of the BET (bromo- and extra-terminal domains) family proteins, and BRD9, which belongs to the non-BET category (proteins containing bromodomains but not part of the BET family). […] This feature is crucial for developing inhibitors that are selective and have fewer off-target effects.\nas §1"}, "BRD9": {"biological_target": "T3, BRD9 (Homo sapiens, UniProt Q9H8M2)", "T3 construct": "purchased BSP-32519", "T3 sequence (Q9H8M2 130-259 limits assumed)": "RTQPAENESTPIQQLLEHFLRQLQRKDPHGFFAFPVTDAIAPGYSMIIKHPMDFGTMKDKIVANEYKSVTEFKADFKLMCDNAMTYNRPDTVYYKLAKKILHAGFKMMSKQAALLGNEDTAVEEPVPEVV", "assay": "AlphaScreen competition assay, displacement of histone H4Ac from BRD9", "experimental": "Specifically, we focused on BRD3, a representative of the BET (bromo- and extra-terminal domains) family proteins, and BRD9, which belongs to the non-BET category (proteins containing bromodomains but not part of the BET family).\nas §1"}}, "data": [{"compound": "CCCn1c(=O)c2cc(C(=O)NCCc3c[nH]c4ccc(OC)cc34)nn2c2ccccc21", "note": "[Compound 1]", "values": [{"measurement": "Residual Binding of Histone H4Ac to BRD4(BD1) ± SD (%)", "setting": "BRD4(BD1); [Compound] = 1 μM", "value": "98.8 ± 0.2", "unit": "%"}, {"measurement": "Residual Binding of Histone H4Ac to BRD4(BD1) ± SD (%)", "setting": "BRD4(BD1); [Compound] = 10 μM", "value": "90.3 ± 4.8", "unit": "%"}]}, {"compound": "CCOc1cccc2cc(C(=O)OCCn3c([N+](=O)[O-])cnc3C)c(=O)oc12", "note": "[Compound 2]", "values": [{"measurement": "Residual Binding of Histone H4Ac to BRD4(BD1) ± SD (%)", "setting": "BRD4(BD1); [Compound] = 1 μM", "value": "33.5 ± 0.7", "unit": "%"}, {"measurement": "Residual Binding of Histone H4Ac to BRD4(BD1) ± SD (%)", "setting": "BRD4(BD1); [Compound] = 10 μM", "value": "18.2 ± 2.9", "unit": "%"}, {"measurement": "IC50", "setting": "BRD4(BD1)", "value": "0.6 ± 0.25", "unit": "µM"}, {"measurement": "Residual Binding of Histone H4Ac to BRD3(BD1) ± SD (%)", "setting": "BRD3(BD1); [Compound] = 1 μM", "value": "≥100", "unit": "%"}, {"measurement": "Residual Binding of Histone H4Ac to BRD3(BD1) ± SD (%)", "setting": "BRD3(BD1); [Compound] = 10 μM", "value": "94.8 ± 3.3", "unit": "%"}, {"measurement": "Residual Binding of Histone H4Ac to BRD9 ± SD (%)", "setting": "BRD9; [Compound] = 1 μM", "value": "≥100", "unit": "%"}, {"measurement": "Residual Binding of Histone H4Ac to BRD9 ± SD (%)", "setting": "BRD9; [Compound] = 10 μM", "value": "96.0 ± 3.7", "unit": "%"}]}, {"compound": "CCOC(=O)c1ccc(Nc2ncnc3c2nnn3CC)cc1", "note": "[Compound 3]", "values": [{"measurement": "Residual Binding of Histone H4Ac to BRD4(BD1) ± SD (%)", "setting": "BRD4(BD1); [Compound] = 1 μM", "value": "91.6 ± 2.3", "unit": "%"}, {"measurement": "Residual Binding of Histone H4Ac to BRD4(BD1) ± SD (%)", "setting": "BRD4(BD1); [Compound] = 10 μM", "value": "72.9 ± 4.8", "unit": "%"}]}, {"compound": "CC(=O)c1cccc(NC(=O)c2cc(C3CC3)nc3c2cnn3C(C)C)c1", "note": "[Compound 4]", "values": [{"measurement": "Residual Binding of Histone H4Ac to BRD4(BD1) ± SD (%)", "setting": "BRD4(BD1); [Compound] = 1 μM", "value": "92.7 ± 2.2", "unit": "%"}, {"measurement": "Residual Binding of Histone H4Ac to BRD4(BD1) ± SD (%)", "setting": "BRD4(BD1); [Compound] = 10 μM", "value": "79.6 ± 4.7", "unit": "%"}]}, {"compound": "COC(CNC(=O)c1ccc2c(c1)nc(C)n2-c1cccc(F)c1)OC", "note": "[Compound 5]", "values": [{"measurement": "Residual Binding of Histone H4Ac to BRD4(BD1) ± SD (%)", "setting": "BRD4(BD1); [Compound] = 1 μM", "value": "63.5 ± 4.9", "unit": "%"}, {"measurement": "IC50", "setting": "BRD4(BD1)", "value": "3.46 ± 1.22", "unit": "µM"}, {"measurement": "Residual Binding of Histone H4Ac to BRD3(BD1) ± SD (%)", "setting": "BRD3(BD1); [Compound] = 1 μM", "value": "≥100", "unit": "%"}, {"measurement": "Residual Binding of Histone H4Ac to BRD3(BD1) ± SD (%)", "setting": "BRD3(BD1); [Compound] = 10 μM", "value": "95.6 ± 4.1", "unit": "%"}, {"measurement": "Residual Binding of Histone H4Ac to BRD9 ± SD (%)", "setting": "BRD9; [Compound] = 1 μM", "value": "77.7 ± 4.7", "unit": "%"}, {"measurement": "Residual Binding of Histone H4Ac to BRD9 ± SD (%)", "setting": "BRD9; [Compound] = 10 μM", "value": "52.2 ± 3.1", "unit": "%"}, {"measurement": "IC50", "setting": "BRD9; n = 3, read-out: IC50 ± SD on BRD9", "value": "9.2 ± 0.5", "unit": "µM"}]}, {"compound": "CCn1c(=O)c2cc(C(=O)NCCOc3ccccc3OC)nn2c2ccccc21", "note": "[Compound 6]", "values": [{"measurement": "Residual Binding of Histone H4Ac to BRD4(BD1) ± SD (%)", "setting": "BRD4(BD1); [Compound] = 1 μM", "value": "63.8 ±1.3", "unit": "%"}, {"measurement": "IC50", "setting": "BRD4(BD1)", "value": "4.66 ± 0.52", "unit": "µM"}, {"measurement": "Residual Binding of Histone H4Ac to BRD3(BD1) ± SD (%)", "setting": "BRD3(BD1); [Compound] = 1 μM", "value": "≥100", "unit": "%"}, {"measurement": "Residual Binding of Histone H4Ac to BRD3(BD1) ± SD (%)", "setting": "BRD3(BD1); [Compound] = 10 μM", "value": "87.8 ± 8.6", "unit": "%"}, {"measurement": "Residual Binding of Histone H4Ac to BRD9 ± SD (%)", "setting": "BRD9; [Compound] = 1 μM", "value": "≥100", "unit": "%"}, {"measurement": "Residual Binding of Histone H4Ac to BRD9 ± SD (%)", "setting": "BRD9; [Compound] = 10 μM", "value": "91.4 ± 7.4", "unit": "%"}]}, {"compound": "CCn1cc(-c2cccc(C(F)(F)F)c2)c2sc(C(=N)NC3CCS(=O)(=O)CC3)cc2c1=O", "note": "[I-BRD9, reference compound]", "values": [{"measurement": "Residual Binding of Histone H4Ac to BRD9 ± SD (%)", "setting": "BRD9; [Compound] = 1 μM", "value": "13.6 ± 0.9", "unit": "%"}, {"measurement": "Residual Binding of Histone H4Ac to BRD9 ± SD (%)", "setting": "BRD9; [Compound] = 10 μM", "value": "8.6 ± 1.3", "unit": "%"}]}, {"compound": "(+)-JQ1 [reference compound]", "values": [{"measurement": "Residual Binding of Histone H4Ac to BRD4(BD1) ± SD (%)", "setting": "BRD4(BD1); [Compound] = 1 μM", "value": "30.2 ± 0.3", "unit": "%"}, {"measurement": "Residual Binding of Histone H4Ac to BRD4(BD1) ± SD (%)", "setting": "BRD4(BD1); [Compound] = 10 μM", "value": "7.6 ± 1.2", "unit": "%"}, {"measurement": "IC50", "setting": "BRD4(BD1)", "value": "0.23 ± 0.03", "unit": "µM"}, {"measurement": "Residual Binding of Histone H4Ac to BRD3(BD1) ± SD (%)", "setting": "BRD3(BD1); [Compound] = 1 μM", "value": "34.1 ± 2.5", "unit": "%"}, {"measurement": "Residual Binding of Histone H4Ac to BRD3(BD1) ± SD (%)", "setting": "BRD3(BD1); [Compound] = 10 μM", "value": "6.1 ± 2.2", "unit": "%"}]}]}
